In patent publication US20080045492A1, “Mitotic Kinesin Inhibitors” (priority 2004, published 2008):
Like-named read-outs stand apart in the source and are kept apart here.

Target: T1, human KSP motor domain (KSP(367H)) (Homo sapiens, UniProt P52732)
T1 construct: were used to amplify the motor domain and the neck linker region; made in house; host or cells: E. coli BL21 (DE3), pRSETa
T1 sequence (P52732 18-359 limits assumed): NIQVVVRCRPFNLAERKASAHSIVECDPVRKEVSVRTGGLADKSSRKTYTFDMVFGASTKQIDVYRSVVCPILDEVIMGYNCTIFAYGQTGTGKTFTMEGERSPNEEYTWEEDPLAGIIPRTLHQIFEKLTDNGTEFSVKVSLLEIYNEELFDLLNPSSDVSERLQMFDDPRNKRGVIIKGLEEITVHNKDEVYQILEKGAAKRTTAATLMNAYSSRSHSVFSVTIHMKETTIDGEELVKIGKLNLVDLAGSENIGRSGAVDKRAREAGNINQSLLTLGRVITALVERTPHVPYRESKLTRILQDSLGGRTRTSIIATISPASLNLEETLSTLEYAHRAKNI
Assay: Kinesin ATPase In Vitro Assay
Type: biochemical
Protocol: I. Kinesin ATPase In Vitro Assay
The N-terminal primer 5′-[…] (SEQ. ID. NO.: 1) and the C-terminal primer 5′-[…] […] […] The PCR products were digested with AseI and XhoI, ligated into the NdeI/XhoI digestion product of pRSETa (Invitrogen) and transformed into E. coli BL21 (DE3).
Cells were grown at 37° C. to an OD600 of 0.5. After cooling the culture to room temperature expression of KSP was induced with 100 μM IPTG and incubation was continued overnight. Cells were pelleted by centrifugation and washed once with ice-cold PBS. Pellets were flash-frozen and stored −80° C.
Cell pellets were thawed on ice and resuspended in lysis buffer (50 mM K-HEPES, pH 8.0, 250 mM KCl, 0.1% Tween, 10 mM imidazole, 0.5 mM Mg-ATP, 1 mM PMSF, 2 mM benzimidine, 1× complete protease inhibitor cocktail (Roche)). Cell suspensions were incubated with 1 mg/ml lysozyme and 5 mM β-mercaptoethanol on ice for 10 minutes, followed by sonication (3×30 sec). All subsequent procedures were performed at 4° C. Lysates were centrifuged at 40,000×g for 40 minutes. Supernatants were diluted and loaded onto an SP Sepharose column (Pharmacia, 5 ml cartridge) in buffer A (50 mM K-HEPES, pH 6.8, 1 mM MgCl2, 1 mM EGTA, 10 μM Mg-ATP, 1 mM DTT) and eluted with a 0 to 750 mM KCl gradient in buffer A. Fractions containing KSP were pooled and incubated with Ni-NTA resin (Qiagen) for one hour. The resin was washed three times with buffer B (Lysis buffer minus PMSF and protease inhibitor cocktail), followed by three 15-minute incubations and washes with buffer B. Finally, the resin was incubated and washed for 15 minutes three times with buffer C (same as buffer B except for pH 6.0) and poured into a column. KSP was eluted with elution buffer (identical to buffer B except for 150 mM KCl and 250 mM imidazole). KSP-containing fractions were pooled, made 10% in sucrose, and stored at −80° C.
Microtubules are prepared from tubulin isolated from bovine brain. Purified tubulin (>97% MAP-free) at 1 mg/ml is polymerized at 37° C. in the presence of 10 μM paclitaxel, 1 mM DTT, 1 mM GTP in BRB80 buffer (80 mM K-PIPES, 1 mM EGTA, 1 mM MgCl2 at pH 6.8). The resulting microtubules are separated from non-polymerized tubulin by ultracentrifugation and removal of the supernatant. The pellet, containing the microtubules, is gently resuspended in 10 μM paclitaxel, 1 mM DTT, 50 μg/ml ampicillin, and 5 μg/ml chloramphenicol in BRB80.
The kinesin motor domain is incubated with microtubules, 1 mM ATP (1:1 MgCl2: Na-ATP), and compound at 23° C. in buffer containing 80 mM K-HEPES (pH 7.0), 1 mM EGTA, 1 mM DTT, 1 mM MgCl2, and 50 mM KCl. […] Free phosphate from the ATP hydrolysis reaction is measured via a quinaldine red/ammonium molybdate assay by adding a […] of quench C (e.g., to a mixture of 40 μl reaction volume+40 μl stop buffer is then added 120 μl quench C). […] Quench C is a 2:1 ratio of quench A:quench B The reaction is incubated for 5-10 minutes at 23° C., and the absorbance of the phospho-molybdate complex is measured at 540 nm.

[1] = kinesin motor domain with microtubules, 1 mM ATP, 23° C., read-out: IC50

Structure (SMILES): CON(C)C(=O)C1=NN(c2cc(C)ccc2F)CC1(CCCO)c1ccccc1 (racemic) [Compound 2-1, (±)-1-(2-fluoro-5-methylphenyl)-4-(3-hydroxypropyl)-N-methoxy-N-methyl-4-phenyl-4,5-dihydro-1H-pyrazole-3-carboxamide]
- IC50 [1]: ≤ 50 µM

Structure (SMILES): CC(=O)C1=NN(c2cc(C)ccc2F)CC1(CCCN(C)C)c1ccccc1 (racemic) [Compound 2-3, (±)-(1-[4-[3-(dimethylamino)propyl]-1-(2-fluoro-5-methylphenyl)-4-phenyl-4,5-dihydro-1H-pyrazol-3-yl]ethanone]
- IC50: ≤ 50 µM

Structure (SMILES): CCOC(=O)C1=NN(c2cc(F)ccc2F)C(N2CCOCC2)C1c1ccccc1 (racemic) [Compound 44, (±)-Ethyl 1-(2,5-difluorophenyl)-5-morpholin-4-yl-4-phenyl-4,5-dihydro-1H-pyrazole-3-carboxylate]
- IC50 [1]: ≤ 50 µM

Structure (SMILES): CC(=O)C1=NN(c2cccc(F)c2)CC1c1ccccc1 (racemic) [Compound 3-5, (±)-1-[1-(3-fluorophenyl)-4-phenyl-4,5-dihydro-1H-pyrazol-3-yl]ethanone]
- IC50 [1]: ≤ 50 µM

Structure (SMILES): CC(=O)c1nn(-c2cc(F)ccc2F)cc1-c1ccccc1 [Compound 4-7, 1-[1-(2,5-difluorophenyl)-4-phenyl-1H-pyrazol-3-yl]ethanone]
- IC50 [1]: ≤ 50 µM
